Values quoted from earlier work in US20220235022A1 (priority 2019, published 2022).

Key:
[1] = conjugate acid of the base, approximate values
[2] = compared with Δ^9-THC; reported

Compound	pKa (conjugate acid in DMSO) [1]	less potent in terms of psychoactivity [2]
Cc1cccc(C)n1 [2,6-dimethylpyridine]	4.46	–
CCCCCc1cc(O)c2c(c1)OC(C)(C)[C@@H]1CC=C(C)C[C@@H]21 [Δ^8-THC, Δ^8-tetrahydrocannabinol]	–	approximately 50%
